The source of these data is patent publication US20040097522A1, “Triazolopyrimidines” (priority 2000, published 2004).

The data set in a line: logP determination. It is filed as physicochemical. As to conditions: for logP: Table 1 logP.

In the case of `C=C(Cl)CN(CCCF)c1c(-c2c(Cl)c(F)cc(C(F)(F)F)c2Cl)c(Cl)nc2ncnn12` [Example 51], the logP (as a rule, a log measure of how a compound divides between an organic and an aqueous phase) turned out to be 4.19.
`CN(C)C(=O)CN(CCCF)c1c(-c2c(Cl)c(F)cc(C(F)(F)F)c2Cl)c(Cl)nc2ncnn12` [Example 4] returned a logP of 3.01.
On the same count and under the same terms, the figure for `C=C(Br)CN(CCCF)c1c(-c2ccc(C(F)(F)F)cc2F)c(Cl)nc2ncnn12` [Example 44] is 3.85; for `C=C(Cl)CN(CCCF)c1c(-c2ccc(C(F)(F)F)c(F)c2F)c(Cl)nc2ncnn12` [Example 56] it is 3.86; for `CC(=O)CN(CCCF)c1c(-c2cc(C(F)(F)F)ccc2Cl)c(Cl)nc2ncnn12` [Example 33] it is 3.07.
On the same count and under the same terms, the figure for `CN(C)C(=O)CN(CCCF)c1c(-c2ccc(C(F)(F)F)c(F)c2F)c(Cl)nc2ncnn12` [Example 9] is 2.86.
`C=C(Br)CN(CCCF)c1c(-c2cc(C(F)(F)F)ccc2C(F)(F)F)c(F)nc2ncnn12` [Example 42] registered a logP of 3.84.
Molecule `CN(C)C(=O)CN(CCCF)c1c(-c2cccc3c2OC(F)(F)O3)c(Cl)nc2ncnn12` [Example 8] showed a log partition coefficient (logP) of 2.52.
The molecule `COC(CN(CCCF)c1c(-c2cc(C(F)(F)F)ccc2Cl)c(Cl)nc2ncnn12)OC` [Example 17] yielded a logP of 3.54.
Molecule `C=C(Cl)CN(CCCF)c1c(-c2ccc(C(F)(F)F)cc2F)c(Cl)nc2ncnn12` [Example 52] gave a logP of 3.77.
With `CN(C)C(=O)CN(CCCF)c1c(-c2cc(C(F)(F)F)ccc2C(F)(F)F)c(Cl)nc2ncnn12` [Example 3], the log partition coefficient (logP) is given as 2.89.
Regarding `COC(=O)CN(CCCF)c1c(-c2cccc3c2OC(F)(F)O3)c(Cl)nc2ncnn12` [Example 1], the “log P (S)” value (log P (S), stated in the preparation example) was determined as 2.93.
Molecule `CCOC(CN(CCCF)c1c(-c2cccc(C(F)(F)F)c2Cl)c(Cl)nc2ncnn12)OCC` [Example 30] came in with a log partition coefficient (logP) of 4.00.
Molecule `C=C(Cl)CN(CCCF)c1c(-c2cccc(C(F)(F)F)c2Cl)c(F)nc2ncnn12` [Example 54] yielded a logP of 3.66.
Turning to `COC(CN(CCCF)c1c(-c2cc(SC(F)(F)F)ccc2Cl)c(Cl)nc2ncnn12)OC` [Example 21], the log partition coefficient (logP) worked out at 3.90.
As for `CC(=O)CN(CCCF)c1c(-c2ccc(C(F)(F)F)cc2F)c(Cl)nc2ncnn12` [Example 36], the logP is listed as 3.01.
Consider `COC(CN(CCCF)c1c(-c2c(F)cc(F)cc2C(F)(F)F)c(Cl)nc2ncnn12)OC` [Example 73], for which the log partition coefficient (logP) was 3.22.
For `C=C(Br)CN(CCCF)c1c(-c2cccc(C(F)(F)F)c2Cl)c(F)nc2ncnn12` [Example 46], the log partition coefficient (logP) came out at 3.73.
The same measure, in the same setting: the figure for `C=C(Br)CN(CCCF)c1c(-c2ccc(C(F)(F)F)c(F)c2F)c(Cl)nc2ncnn12` [Example 48] is 3.94; for `C=C(Cl)CN(CCCF)c1c(-c2cc(C(F)(F)F)ccc2C(F)(F)F)c(F)nc2ncnn12` [Example 50] it is 3.77.
The same measure, in the same setting: the figure for `CC(=O)CN(CCCF)c1c(-c2cc(SC(F)(F)F)ccc2Cl)c(Cl)nc2ncnn12` [Example 37] is 3.42; for `COC(=O)CN(CCCF)c1c(-c2c(Cl)c(F)cc(C(F)(F)F)c2Cl)c(Cl)nc2ncnn12` [Example 12] it is 3.58.
Same read-out and setting: the figure for `CCOC(CN(CCCF)c1c(-c2cc(SC(F)(F)F)ccc2Cl)c(Cl)nc2ncnn12)OCC` [Example 29] is 4.47; for `C=C(Cl)CN(CCCF)c1c(-c2cccc3c2OC(F)(F)O3)c(Cl)nc2ncnn12` [Example 55] it is 3.61.
`COC(=O)CN(CCCF)c1c(-c2cc(C(F)(F)F)ccc2Cl)c(Cl)nc2ncnn12` [Example 10] returned a logP of 3.23.
For the molecule `COC(=O)CN(CCCF)c1c(-c2c(F)cc(F)cc2C(F)(F)F)c(Cl)nc2ncnn12` [Example 74], the logP was 2.92.
As for `C=C(Br)CN(CCCF)c1c(-c2cccc3c2OC(F)(F)O3)c(Cl)nc2ncnn12` [Example 47], the logP turned out to be 3.69.
The same measure, in the same setting: the figure for `COC(CN(CCCF)c1c(-c2ccc(C(F)(F)F)cc2F)c(Cl)nc2ncnn12)OC` [Example 20] is 3.41; for `COC(=O)CN(CCCF)c1c(-c2ccc(C(F)(F)F)c(F)c2F)c(Cl)nc2ncnn12` [Example 16] it is 3.29.
As for `CN(C)C(=O)CN(CCCF)c1c(-c2cccc(C(F)(F)F)c2Cl)c(Cl)nc2ncnn12` [Example 7], the lipophilicity (logP) is recorded as 2.71.
`COC(=O)CN(CCCF)c1c(-c2cccc(C(F)(F)F)c2Cl)c(Cl)nc2ncnn12` [Example 15] registered a logP of 3.17.
Molecule `C=C(Br)CN(CCCF)c1c(-c2cc(SC(F)(F)F)ccc2Cl)c(Cl)nc2ncnn12` [Example 45] gave a logP of 4.36.
For `CC(=O)CN(CCCF)c1c(-c2cccc(C(F)(F)F)c2Cl)c(Cl)nc2ncnn12` [Example 38], the logP was determined as 3.01.
Molecule `C=C(Br)CN(CCCF)c1c(-c2cc(C(F)(F)F)ccc2Cl)c(Cl)nc2ncnn12` [Example 41] displayed a lipophilicity (logP) of 3.92.
On to `COC(CN(CCCF)c1c(-c2cccc3c2OC(F)(F)O3)c(Cl)nc2ncnn12)OC` [Example 23], for which the logP worked out at 3.24.
On to `CCOC(CN(CCCF)c1c(-c2ccc(C(F)(F)F)cc2F)c(Cl)nc2ncnn12)OCC` [Example 28], for which the log partition coefficient (logP) is on record as 4.04.
As to `CCOC(CN(CCCF)c1c(-c2cc(C(F)(F)F)ccc2Cl)c(Cl)nc2ncnn12)OCC` [Example 25], the logP is on record as 4.10. The logP values of the last two molecules are within 0.2 log units of each other.
`C=C(Cl)CN(CCCF)c1c(-c2cc(SC(F)(F)F)ccc2Cl)c(Cl)nc2ncnn12` [Example 53] gave a lipophilicity (logP) of 4.27.
In the case of `COC(=O)CN(CCCF)c1c(-c2ccc(C(F)(F)F)cc2F)c(Cl)nc2ncnn12` [Example 13], the logP turned out to be 3.17.
`COC(=O)CN(CCCF)c1c(-c2cc(SC(F)(F)F)ccc2Cl)c(Cl)nc2ncnn12` [Example 14] displayed a lipophilicity (logP) of 3.57.
On the same count and under the same terms, the figure for `CCOC(CN(CCCF)c1c(-c2cccc3c2OC(F)(F)O3)c(Cl)nc2ncnn12)OCC` [Example 31] is 3.81; for `CCOC(CN(CCCF)c1c(-c2ccc(C(F)(F)F)c(F)c2F)c(Cl)nc2ncnn12)OCC` [Example 32] it is 4.16; for `CN(C)C(=O)CN(CCCF)c1c(-c2cc(SC(F)(F)F)ccc2Cl)c(Cl)nc2ncnn12` [Example 6] it is 3.14.
`C=C(Br)CN(CCCF)c1c(-c2c(Cl)c(F)cc(C(F)(F)F)c2Cl)c(Cl)nc2ncnn12` [Example 43] yielded a logP of 4.27.
`CN(C)C(=O)CN(CCCF)c1c(-c2cc(C(F)(F)F)ccc2Cl)c(Cl)nc2ncnn12` [Example 2] yielded a logP of 2.77.
The molecule `CC(=O)CN(CCCF)c1c(-c2ccc(C(F)(F)F)c(F)c2F)c(Cl)nc2ncnn12` [Example 40] returned a lipophilicity (logP) of 3.14.
`C=C(Cl)CN(CCCF)c1c(-c2cc(C(F)(F)F)ccc2Cl)c(Cl)nc2ncnn12` [Example 49] displayed a logP of 3.84.
Regarding `COC(CN(CCCF)c1c(-c2c(Cl)c(F)cc(C(F)(F)F)c2Cl)c(Cl)nc2ncnn12)OC` [Example 19], the lipophilicity (logP) is listed as 3.82.
In turn, `COC(CN(CCCF)c1c(-c2cccc(C(F)(F)F)c2Cl)c(Cl)nc2ncnn12)OC` [Example 22] returned a logP of 3.42.
Consider `COC(CN(CCCF)c1c(-c2ccc(C(F)(F)F)c(F)c2F)c(Cl)nc2ncnn12)OC` [Example 24], for which the log partition coefficient (logP) was 3.55. The logP values of the last two molecules are within 0.2 log units of each other.
Same read-out and setting: the figure for `CC(=O)CN(CCCF)c1c(-c2cccc3c2OC(F)(F)O3)c(Cl)nc2ncnn12` [Example 39] is 2.80.
In turn, `CCOC(CN(CCCF)c1c(-c2c(Cl)c(F)cc(C(F)(F)F)c2Cl)c(Cl)nc2ncnn12)OCC` [Example 27] registered a log partition coefficient (logP) of 4.45.
As to `CN(C)C(=O)CN(CCCF)c1c(-c2ccc(C(F)(F)F)cc2F)c(Cl)nc2ncnn12` [Example 5], the lipophilicity (logP) came to 2.71.
